Source: patent US6218384A, “3-Oxo-pyrido(1,2-a)benzimidazole-4-carboxyl and 4-oxo-azepino(1,2-a)benzimidazole-5-carboxyl derivatives useful in treating central nervous system disorders” (Ortho-McNeil Pharmaceutical, Inc., priority 1997, dated 2001)
Where two headings read alike, the source gives them in different places.

Legend:
[1] = target: benzodiazepine site of the GABA-A receptor; assay: Benzodiazepine Receptor Binding Assay (inhibition of 3H-flunitrazepam binding); settings: ca. 3 nM 3H-flunitrazepam
[2] = Suppression of metrazol-induced convulsions; assay type: in vivo, male CD1 mice; settings: mice; for ED50: Mus musculus, 0.5 h; for Metrazol (ip) ED50: 30 min
Protocol: Selected compounds of the invention were tested for their ability to reduce metrazol-induced convulsions in mice (Swinyard, E. A. J. Am. Pharm Assoc. 1949, 38, 201). Male CD1 mice, were fasted at least 16 hours, were divided into equal groups and test compounds or vehicle were administered parenterally. Water was not withheld except during the period of observations. At the time of suspected peak activity, anti-pentylenetetrazol (anti-metrazol) activity was evaluated by the subcutaneous administration of the CD90 dose of metrazol (the dose of metrazol was determined from the dose-response curve producing clonic convulsions in 90% of animals that received the corresponding vehicle for this experiment). Metrazol was dissolved in 0.9% sodium chloride solution, and its dose volume was 10 ml/kg. Animals were housed individually for observation of clonic convulsions, tonic convulsions and death for a period of 30 min. Test compounds that blocked the clonic seizure component of the convulsion in at least 50% of the animals were considered active. The biological assay was considered to be valid if the effects of a known anticonvulsant (positive control) were detected, within the same experiment. Activity was reported as percent reduction of clonic convulsions from the vehicle group. The ED50 values of active compounds were calculated by the method of probits (Finney, D. J. 1971. Probit Analysis. London: Cambridge University Press) and are listed in Tables 1 to 5.

[3] = Suppression of anxiety (punished licking, conflict test) in the adult male rat; assay type: in vivo, male rats
Protocol: The anxiolytic activity of selected compounds of the invention was assessed by determining their ability to release (disinhibit) behavior that had been suppressed by punishment (Vogel, J. R. et al. Psychopharmacology 1971, 21, 1). Male rats were deprived of water for 48 hours and were deprived of food for 24 hours prior to testing. After the first 24 hours of water deprivation, they were placed in the conflict chamber for a training period; wherein, they were allowed 200 unpunished licks from a bottle containing tap water. The experiment was run the next day. At the expected time of peak activity, the animals were placed in the chamber and allowed access to tap water. […] Their first lick initiates a 3-min test session. Subsequently,every 20th lick was punished by a 0.2-s shock delivered via the stainless-steel drinking-tube. Vehicle-treated control animals generally were willing to accept a median number of 3 to 8 shocks per test session. […] The Wilcoxon rank-sum test (Mann-WhitneyU-test) was used to test for an increase (p<0.05, 1-tailed) in the median number of shocks in drug-treated groups, compared to a concurrently run vehicle-treated group. The biological assay is considered to be valid if the effects of a known anxiolytic (positive control) are detected, within the same experiment. A compound was considered active if there is a significant difference in the median number of shocks tolerated between the drug-treated group and the control group. The MED was defined as the minimum dose of the drug-treatment as analyzed using the Wilcoxon rank-sum test (SAS; Statistical Analysis System, version 5.16). If the MED value is greater than 10, an active dose of the compound being tested had not been determined.

[4] = Table 1, 25° C., 10-20 min, >10,000 = not active
[5] = Table 1, ip, clonic convulsions after sc CD90 metrazol, >30 = active dose not determined, read-out: Metrazol (ip) ED50
[6] = Table 1, ip, minimum effective dose, >10 = active dose not determined, read-out: Conflict (ip) MED
[7] = Table 1, ip, clonic convulsions after sc CD90 metrazol, >30 = active dose not determined
[8] = Table 1, ip, minimum effective dose, >10 = active dose not determined
[9] = Table 3, parenteral, clonic convulsions, read-out: Antimetrazol ED50
[10] = Table 3, minimum effective dose, read-out: Conflict MED
[11] = Table 4, parenteral, clonic convulsions, read-out: Antimetrazol ED50
[12] = Table 4, minimum effective dose, read-out: Conflict MED
[13] = Table 5, parenteral, clonic convulsions, read-out: Antimetrazol ED50
[14] = Table 5, minimum effective dose, read-out: Conflict MED

Compound | IC50 [1, 4] [nM] | ED50 [2, 5] [mg/kg] | minimal effective dose [3, 6] [mg/kg] | other results
O=C1CCN2C(=C1C(=O)Nc1ccccn1)Nc1ccccc12 [compound 22] | 59 | 10 | 10 | –
Cc1cc(N(C)C)ccc1NC(=O)C1=C2Nc3ccccc3N2CCC1=O [compound 85] | 4000 | 10 | > 10 | –
1,2-Dihydro-3-hydroxy-N-phenylpyrido(1,2-a)benzimidazole-4-thiocarboxamide [CP 117] | 46 | – | – | Metrazol (ip) ED50 [2, 7]: > 30 mg/kg; Conflict (ip) MED [3, 8]: 10 mg/kg
O=C1CCN2C(=C1C(=O)Nc1ccccc1)N(Cc1ccccc1)c1ccccc12 [compound 127] | – | – | – | IC50 ([1]; Table 3): 12 nM; ED50 [2, 9]: 3 mg/kg; minimal effective dose [3, 10]: 10 mg/kg
CCCN1C2=C(C(=O)Nc3ccccc3F)C(=O)CCN2c2ccccc21 [compound 130] | – | – | – | IC50 ([1]; Table 3): < 1 nM; ED50 [2, 9]: 0.1 mg/kg; minimal effective dose [3, 10]: < 0.3 mg/kg
O=C1CCN2C(=C1C(=O)Nc1ccccc1F)Nc1ccccc12 [compound 20] | 1.7 | 0.1 | 1 | –
COc1cccc(NC(=O)C2=C3Nc4ccccc4N3CCC2=O)c1 [compound 21] | 26 | 0.3 | 5 | –
Phenyl-1,2-dihydro-3-hydroxypyrido(1,2-a)benzimidazole-4-carboxthiolate [CP 119] | 43 | – | – | Metrazol (ip) ED50 [2, 7]: 30 mg/kg; Conflict (ip) MED [3, 8]: 10 mg/kg
Cn1c2ccccc2n2ccc(=O)c(C(=O)Nc3ccccc3)c12 [compound 142] | – | – | – | IC50 ([1]; Table 4): 45 nM; ED50 [2, 11]: < 1 mg/kg; minimal effective dose [3, 12]: < 1 mg/kg
O=C1CCCN2C(=C1C(=O)Nc1ccc(F)cc1F)N(Cc1ccccc1)c1ccccc12 [compound 156] | – | – | – | IC50 ([1]; Table 5): 330 nM; ED50 [2, 13]: > 10 mg/kg; minimal effective dose [3, 14]: > 10 mg/kg
CN1C2=C(C(=O)Nc3ccccc3)C(=O)CCCN2c2ccccc21 [compound 144] | – | – | – | IC50 ([1]; Table 5): 28 nM; ED50 [2, 13]: > 10 mg/kg; minimal effective dose [3, 14]: > 10 mg/kg
O=C1CCN2C(=C1C(=O)Nc1c(F)cccc1F)Nc1cc(Cl)ccc12 [compound 114] | 6 | 1 | 3 | –
NC(=O)C1=C2Nc3ccccc3N2CCC1=O [compound 29] | 2400 | > 3 | 10 | –
CN1C2=C(C(=O)Nc3c(F)cc(F)cc3F)C(=O)CCCN2c2ccccc21 [compound 157] | – | – | – | IC50 ([1]; Table 5): 53 nM; ED50 [2, 13]: > 10 mg/kg; minimal effective dose [3, 14]: > 10 mg/kg
CSc1ccccc1NC(=O)C1=C2Nc3ccccc3N2CCC1=O [compound 40] | 720 | > 10 | > 10 | –
O=C1CCN2C(=C1C(=O)Nc1ccc3[nH]ccc3c1)Nc1ccccc12 [compound 30] | 530 | > 30 | > 10 | –
O=C1CCN2C(=C1C(=O)Nc1ccc3[nH]nnc3c1)Nc1ccccc12 [compound 73] | 160 | > 10 | > 10 | –
O=C1CCN2C(=C1C(=O)Nc1nnc(C(F)(F)F)s1)Nc1ccccc12 [compound 74] | 10000 | 10 | > 10 | –
O=C1CCN2C(=C1C(=O)Nc1ccc(C(=O)O)cc1)Nc1ccccc12 [compound 28] | > 10000 | > 30 | 10 | –
1,2-Dihydro-5-ethyl-3-oxo-N-(2-fluorophenyl)-pyrido(1,2-a)benzimidazole-4-carboxamide [CP 123] | 620 | – | – | Metrazol (ip) ED50 [2, 7]: 5 mg/kg; Conflict (ip) MED [3, 8]: 1 mg/kg
CNC(=O)C1=C2Nc3ccccc3N2CCC1=O [compound 102] | 400 | > 10 | > 10 | –
O=C1CCN2C(=C1C(=O)Nc1ccccc1)Nc1ccc(Cl)cc12 [compound 84] | 170 | > 10 | > 10 | –
O=C1CCN2C(=C1C(=O)Nc1ccc(F)c(F)c1F)Nc1ccccc12 [compound 96] | 1500 | > 10 | > 10 | –

Compound | IC50 [1, 4] [nM] | ED50 [2, 5] [mg/kg] | minimal effective dose [3, 6] [mg/kg] | other results
O=C1CCN2C(=C1C(=O)Nc1ncccn1)Nc1ccccc12 [compound 46] | 54 | 3 | 10 | –
O=C1CCN2C(=C1C(=O)Nc1ccncc1F)Nc1cc(F)ccc12 [compound 110] | 12 | – | – | –
O=C1CCN2C(=C1C(=O)Nc1ccccc1)Nc1cc(C(F)(F)F)ccc12 [compound 16] | 960 | – | – | –
CSc1cc(N(C)C)ccc1NC(=O)C1=C2Nc3ccccc3N2CCC1=O [compound 79] | 660 | > 10 | > 10 | –
O=C1CCN2C(=C1C(=O)Nc1ccccc1)Nc1cc(Cl)ccc12 [compound 81] | 66 | > 10 | 10 | –
O=C1CCN2C(=C1C(=O)Nc1ccc3[nH]ncc3c1)Nc1ccccc12 [compound 50] | 96 | > 10 | 10 | –
O=C(Nc1ccncc1)c1c(=O)ccn2c1[nH]c1ccccc12 [compound 140] | – | – | – | IC50 ([1]; Table 4): 260 nM; ED50 [2, 11]: > 10 mg/kg; minimal effective dose [3, 12]: > 10 mg/kg
CSc1ccc(NC(=O)C2=C3Nc4ccccc4N3CCC2=O)cc1 [compound 23] | 400 | 10 | > 10 | –
Nc1ccc(NC(=O)C2=C3Nc4ccccc4N3CCC2=O)cc1 [compound 18] | 13000 | 3 | > 10 | –
CCOC(=O)c1ccc(NC(=O)C2=C3Nc4ccccc4N3CCC2=O)cc1 [compound 27] | > 10000 | > 30 | < 10 | –
CN1C2=C(C(=O)Nc3c(F)cc(F)cc3F)C(=O)CCN2c2ccccc21 [compound 135] | – | – | – | IC50 ([1]; Table 3): 13 nM; ED50 [2, 9]: 10 mg/kg; minimal effective dose [3, 10]: > 10 mg/kg
O=C1CCN2C(=C1C(=O)Nc1c(F)cc(F)cc1F)Nc1cc(F)ccc12 [compound 107] | 3 | 1 | 0.3 | –
CN(C)c1ccc(NC(=O)C2=C3Nc4ccccc4N3CCC2=O)cc1 [compound 24] | 270 | 3 | 3 | –
O=C1CCN2C(=C1C(=O)Nc1c(F)c(F)nc(F)c1F)Nc1ccccc12 [compound 55] | 350 | > 10 | > 10 | –
O=C1CCN2C(=C1C(=O)Nc1ccc(F)cc1F)Nc1cc(F)ccc12 [compound 111] | 3.3 | – | – | –
O=C1CCCN2C(=C1C(=O)Nc1ccncc1)N(Cc1ccccc1)c1ccccc12 [compound 154] | – | – | – | IC50 ([1]; Table 5): 6700 nM; ED50 [2, 13]: > 10 mg/kg
CN(C)c1ccc(NC(=O)C2=C3Nc4ccccc4N3CCC2=O)c(F)c1 [compound 86] | 120 | 1 | – | –
O=C1CCN2C(=C1C(=O)Nc1cccnc1F)Nc1ccccc12 [compound 116] | – | 2 | > 10 | –
O=C1CCN2C(=C1C(=O)Nc1c(Cl)cccc1Cl)Nc1cc(F)ccc12 [compound 112] | 100 | – | – | –
O=C1CCN2C(=C1C(=O)Oc1ccccc1)Nc1ccccc12 [compound 118] | – | – | – | IC50 ([1]; Table 2): 200 nM; ED50 ([2]; Table 2, ip, clonic convulsions, read-out: Antimetrazol (ip) ED50): 3 mg/kg
CC1CN2C(=C(C(=O)Nc3ccccc3F)C1=O)N(C)c1ccccc12 (stereo not shown) [compound 132] | – | – | – | ED50 [2, 9]: 1 mg/kg; minimal effective dose [3, 10]: < 10 mg/kg
O=C1CCN2C(=C1C(=O)Nc1c(Cl)cc(Cl)cc1Cl)Nc1ccccc12 [compound 101] | – | > 10 | > 10 | –
